ChEMBL document CHEMBL6114959, “Modeling, synthesis and cell-based evaluation of pyridine-substituted analogs of CD3254 and fluorinated analogs of CBt-PMN as novel therapeutics” (Bioorg Med Chem, 2025)

What was measured:
[1] = Mutagenicity in Saccharomyces cerevisiae D7 incubated for 3 hrs; type: toxicity
[2] = (§1) Cytotoxicity in Saccharomyces cerevisiae D7 incubated for 3 hrs; type: toxicity, organism-based; conditions: Saccharomyces cerevisiae D7 cells
Saccharomyces cerevisiae = assay: as §1; type: toxicity, organism-based; conditions: in vivo, 3 h

SMILES | Activity [1] | CC50 at 3 h [2] [µM] | Activity (Saccharomyces cerevisiae)
Cc1cc2c(cc1-n1c(C(F)(F)F)nc3cc(C(=O)O)ccc31)C(C)(C)CCC2(C)C | Non-toxic | 193 | 
Cc1cnc(/C=C/C(=O)O)cc1-c1cc2c(cc1C)C(C)(C)CCC2(C)C | Non-toxic | 228 | 
Cc1cc2c(cc1-c1nc(/C=C/C(=O)O)ccc1C)C(C)(C)CCC2(C)C | Non-toxic | 228 | 
Cc1cc2c(cc1-c1cncc(/C=C/C(=O)O)c1)C(C)(C)CCC2(C)C | Non-toxic | 440 | 
Cc1cc2c(cc1-c1cc(/C=C/C(=O)O)cnc1C)C(C)(C)CCC2(C)C | Non-toxic | 825 | 
C=C(c1ccc(C(=O)O)cc1)c1cc2c(cc1C)C(C)(C)CCC2(C)C [BEXAROTENE] | Non-toxic |  | Non-toxic
